Test results reported in ChEMBL document CHEMBL1201862, “PubChem BioAssay data set” (2004).
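How tested: cells in 96-well plates exposed to compound for 48 hours at five concentrations. GI50 is the concentration that inhibits growth by half.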 Active and inactive are the calls of the source. Cut-off read from the data, not from the text of the source: active = GI50 up to about 1.1 µM and inactive = higher.

Assays:
Experiment in all cases: DTP human tumour cell line panel, 48 h
786-0 = tested on: 786-0
SF-295 = tested on: SF-295
OVCAR-8 = tested on: OVCAR-8
SF-268 = tested on: SF-268
COLO 205 = tested on: COLO 205
MCF7 = tested on: MCF7
HCC 2998 = tested on: HCC 2998
SK-MEL-28 = tested on: SK-MEL-28
ACHN = tested on: ACHN
TK-10 = tested on: TK-10
DU-145 = tested on: DU-145
CAKI-1 = tested on: CAKI-1
K562 = tested on: K562
PC-3 = tested on: PC-3
NCI-H460 = tested on: NCI-H460
HT-29 = tested on: HT-29
KM12 = tested on: KM12
SW-620 = tested on: SW-620
SK-MEL-2 = tested on: SK-MEL-2
HL-60 = tested on: HL-60
IGROV-1 = tested on: IGROV-1
UACC-62 = tested on: UACC-62
OVCAR-3 = tested on: OVCAR-3
NCI/ADR-RES = tested on: NCI/ADR-RES
Malme-3M = tested on: Malme-3M
RPMI-8226 = tested on: RPMI-8226
U-251 = tested on: U-251
SR = tested on: SR
NCI-H522 = tested on: NCI-H522
MOLT-4 = tested on: MOLT-4
A498 = tested on: A498
NCI-H226 = tested on: NCI-H226
Hs-578T = tested on: Hs-578T
CCRF-CEM = tested on: CCRF-CEM
EKVX = tested on: EKVX
T47D = tested on: T47D
HOP-62 = tested on: HOP-62
SF-539 = tested on: SF-539
SK-OV-3 = tested on: SK-OV-3
OVCAR-4 = tested on: OVCAR-4
UO-31 = tested on: UO-31
HCT-15 = tested on: HCT-15
SNB-75 = tested on: SNB-75
SN12C = tested on: SN12C
MDA-MB-435 = tested on: MDA-MB-435
HOP-92 = tested on: HOP-92
A549 = tested on: A549
NCI-H23 = tested on: NCI-H23
SNB-19 = tested on: SNB-19
LOX IMVI = tested on: LOX IMVI
UACC-257 = tested on: UACC-257
RXF 393 = tested on: RXF 393
HCT-116 = tested on: HCT-116
SK-MEL-5 = tested on: SK-MEL-5
MDA-N = tested on: MDA-N
M14 = tested on: M14
MDA-MB-231 = tested on: MDA-MB-231
OVCAR-5 = tested on: OVCAR-5
BT-549 = tested on: BT-549

Measured: GI50

NC(=O)N/N=C\CC(O)(C(F)(F)Cl)C(F)(F)Cl
> 10 µM: HCT-15
inactive: 786-0 > 10 µM | SF-295 > 10 µM | OVCAR-8 > 10 µM | SF-268 > 10 µM | COLO 205 > 10 µM | MCF7 > 10 µM | HCC 2998 > 10 µM | SK-MEL-28 > 10 µM | ACHN > 10 µM | TK-10 > 10 µM | DU-145 > 10 µM | CAKI-1 > 10 µM | K562 > 10 µM | PC-3 > 10 µM | NCI-H460 > 10 µM | HT-29 > 10 µM | KM12 > 10 µM | SW-620 > 10 µM | SK-MEL-2 > 10 µM | HL-60 > 10 µM | IGROV-1 > 10 µM | UACC-62 > 10 µM | OVCAR-3 > 10 µM | NCI/ADR-RES > 10 µM | Malme-3M > 10 µM | RPMI-8226 > 10 µM | U-251 > 10 µM | SR > 10 µM | NCI-H522 > 10 µM | MOLT-4 > 10 µM | A498 > 10 µM | NCI-H226 > 10 µM | Hs-578T > 10 µM | CCRF-CEM > 10 µM | EKVX > 10 µM | T47D > 10 µM | HOP-62 > 10 µM | SF-539 > 10 µM | SK-OV-3 > 10 µM | OVCAR-4 > 10 µM | UO-31 > 10 µM | SNB-75 > 10 µM | SN12C > 10 µM | MDA-MB-435 > 10 µM | HOP-92 > 10 µM | A549 > 10 µM | NCI-H23 > 10 µM | SNB-19 > 10 µM | LOX IMVI > 10 µM | UACC-257 > 10 µM | RXF 393 > 10 µM | HCT-116 > 10 µM | SK-MEL-5 > 10 µM | MDA-N > 10 µM | M14 > 10 µM | MDA-MB-231 > 10 µM

CC(=O)O[C@H]1CC[C@@]2(C)C(=CC[C@@H]3[C@@H]2CC[C@]2(C)C(=O)/C(=C\c4ccccc4)C[C@@H]32)C1
> 100 µM: HCT-15
inactive: 786-0 > 100 µM | SF-295 > 100 µM | OVCAR-8 > 100 µM | SF-268 > 100 µM | COLO 205 > 100 µM | MCF7 > 100 µM | HCC 2998 > 100 µM | SK-MEL-28 > 100 µM | ACHN > 100 µM | TK-10 > 100 µM | DU-145 > 100 µM | CAKI-1 > 100 µM | K562 54.7 µM | PC-3 64.7 µM | NCI-H460 > 100 µM | OVCAR-5 > 100 µM | HT-29 > 100 µM | KM12 > 100 µM | SW-620 > 100 µM | SK-MEL-2 > 100 µM | IGROV-1 > 100 µM | UACC-62 > 100 µM | OVCAR-3 61.9 µM | NCI/ADR-RES > 100 µM | Malme-3M 89.9 µM | RPMI-8226 > 100 µM | U-251 > 100 µM | SR > 100 µM | NCI-H522 51.8 µM | MOLT-4 37.8 µM | A498 > 100 µM | NCI-H226 > 100 µM | CCRF-CEM > 100 µM | EKVX > 100 µM | T47D > 100 µM | HOP-62 94 µM | SF-539 > 100 µM | SK-OV-3 > 100 µM | OVCAR-4 > 100 µM | UO-31 > 100 µM | SNB-75 > 100 µM | BT-549 > 100 µM | SN12C > 100 µM | MDA-MB-435 > 100 µM | HOP-92 > 100 µM | A549 > 100 µM | NCI-H23 > 100 µM | SNB-19 > 100 µM | LOX IMVI > 100 µM | UACC-257 > 100 µM | RXF 393 40.5 µM | HCT-116 96.2 µM | SK-MEL-5 39.4 µM | MDA-N > 100 µM | M14 > 100 µM | MDA-MB-231 > 100 µM

CSc1ccc(C(=O)C(=O)c2ccc(SC)s2)s1
inactive: 786-0 6.64 µM | SF-295 > 10 µM | OVCAR-8 > 10 µM | SF-268 > 10 µM | COLO 205 > 10 µM | MCF7 5.58 µM | HCC 2998 > 10 µM | SK-MEL-28 > 10 µM | ACHN > 10 µM | TK-10 > 10 µM | DU-145 > 10 µM | CAKI-1 > 10 µM | K562 6.32 µM | PC-3 > 10 µM | NCI-H460 > 10 µM | OVCAR-5 > 10 µM | HT-29 > 10 µM | KM12 > 10 µM | SW-620 > 10 µM | SK-MEL-2 > 10 µM | HL-60 3.43 µM | IGROV-1 > 10 µM | UACC-62 > 10 µM | OVCAR-3 > 10 µM | NCI/ADR-RES 8.45 µM | RPMI-8226 4.86 µM | U-251 > 10 µM | SR 3.92 µM | NCI-H522 > 10 µM | MOLT-4 2.51 µM | NCI-H226 > 10 µM | Hs-578T 3.46 µM | CCRF-CEM 3.15 µM | EKVX > 10 µM | T47D > 10 µM | HOP-62 3.93 µM | SF-539 4.85 µM | SK-OV-3 > 10 µM | OVCAR-4 7.24 µM | UO-31 > 10 µM | SNB-75 > 10 µM | SN12C > 10 µM | MDA-MB-435 4.34 µM | HOP-92 > 10 µM | A549 > 10 µM | NCI-H23 > 10 µM | SNB-19 > 10 µM | LOX IMVI > 10 µM | UACC-257 > 10 µM | RXF 393 > 10 µM | HCT-116 > 10 µM | SK-MEL-5 > 10 µM | MDA-N 4.6 µM | M14 > 10 µM | MDA-MB-231 > 10 µM
> 10 µM: HCT-15

COC(=O)n1c(C)c(C=O)c2ccc(OC)cc21
31.1 µM: HCT-15
inactive: 786-0 36 µM | SF-295 24.9 µM | OVCAR-8 81.7 µM | SF-268 > 10 µM | COLO 205 46.9 µM | MCF7 37.2 µM | HCC 2998 25.9 µM | ACHN 33.1 µM | TK-10 22.8 µM | DU-145 41.1 µM | CAKI-1 38.9 µM | K562 38 µM | PC-3 31.9 µM | NCI-H460 47.8 µM | OVCAR-5 54.7 µM | HT-29 33.3 µM | KM12 36.4 µM | SK-MEL-2 33.2 µM | HL-60 31.3 µM | IGROV-1 38.6 µM | UACC-62 21 µM | OVCAR-3 59.6 µM | NCI/ADR-RES 49.4 µM | Malme-3M 99.8 µM | SR 34.5 µM | NCI-H522 38.5 µM | MOLT-4 42.2 µM | CCRF-CEM 32.4 µM | EKVX 46.5 µM | T47D 72.3 µM | HOP-62 16.4 µM | SF-539 21.9 µM | SK-OV-3 33.8 µM | OVCAR-4 > 100 µM | UO-31 34.4 µM | SNB-75 31.3 µM | BT-549 26.7 µM | SN12C 55.6 µM | MDA-MB-435 21.1 µM | A549 43.7 µM | NCI-H23 28.6 µM | SNB-19 42.7 µM | LOX IMVI 30.1 µM | UACC-257 45.2 µM | RXF 393 30.6 µM | HCT-116 34.8 µM | SK-MEL-5 21.6 µM | MDA-N > 10 µM | M14 36.3 µM | MDA-MB-231 > 100 µM

O=C1/C(=C/c2ccc(Cl)cc2)N=C(c2ccccc2)N1c1ccc(S(=O)(=O)Nc2nccs2)cc1
37.5 µM: HCT-15
inactive: 786-0 46 µM | SF-295 56.5 µM | SF-268 50.8 µM | COLO 205 20.6 µM | MCF7 26.1 µM | HCC 2998 18.9 µM | SK-MEL-28 30.4 µM | ACHN 62.5 µM | TK-10 70.5 µM | DU-145 > 100 µM | CAKI-1 > 100 µM | K562 33 µM | PC-3 31.6 µM | NCI-H460 57.1 µM | OVCAR-5 > 100 µM | HT-29 21.9 µM | KM12 24.8 µM | SW-620 39.8 µM | SK-MEL-2 16 µM | HL-60 30.5 µM | UACC-62 18.7 µM | OVCAR-3 30.5 µM | NCI/ADR-RES 60.5 µM | Malme-3M 30.9 µM | RPMI-8226 17.4 µM | U-251 36.2 µM | SR 32.7 µM | MOLT-4 33.2 µM | A498 43.6 µM | NCI-H226 52.1 µM | Hs-578T 64.4 µM | CCRF-CEM 27 µM | EKVX 31.5 µM | T47D 21.7 µM | HOP-62 62.2 µM | SF-539 88.3 µM | SK-OV-3 > 100 µM | OVCAR-4 50.8 µM | UO-31 23.6 µM | SNB-75 39.5 µM | SN12C 64 µM | MDA-MB-435 23.6 µM | HOP-92 28.9 µM | A549 52.4 µM | NCI-H23 52.2 µM | SNB-19 40.7 µM | LOX IMVI 31.7 µM | UACC-257 32.7 µM | RXF 393 33.4 µM | HCT-116 33.5 µM | SK-MEL-5 23.1 µM | MDA-N 26 µM | M14 47.5 µM | MDA-MB-231 18.9 µM
